Measured values as given in patent US12528816B2, “Substituted imidazo [1,2-b] pyridazines and [1, 2, 4] triazolo [ 4,3-b] pyridazines as camkii inhibitors” (Cardurion Pharmaceuticals, INC., priority 2020, dated 2026).

What follows are compounds tested against T1, human CaMKIIδ (Homo sapiens, UniProt Q13557) (assay: Evaluation of in vitro CaMKII inhibitory activity (binding assay, TR-FRET)). Settings: human CaMKIIδ, TR-FRET binding assay; class symbols A/B/C; read-out: Act (CaMKII inhibitory activity, binding assay).
T1 construct: Full-length, glutathione-S-transferase(GST)-tagged, human CaMKIIδ was purchased from Carna Biosciences; purchased Carna Biosciences (CaMKIIδ); Wako Pure Chemical Industries (calmodulin) 02-111
Outline: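 Inhibitors, in eight concentrations of 4-fold dilution, were incubated 1 h at room temperature with a protein–fluorescent probe premix preformed 30 min on ice, containing calmodulin and terbium anti-GST antibody. Displacement read by TR-FRET in duplicate; IC50 by logistic fitting.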

SMILES	IC50 [nM]
C[C@@H](Cn1cnnn1)Oc1cc(-c2ccc3ncc(-c4cccc(OCC5CCC(=O)N5)c4C#N)n3n2)ccc1F (stereo partly drawn) [compound 200]	< 10
C[C@@H](Cn1cnnn1)Oc1cc(-c2ccc3ncc(-c4cccc(OCC5CCN(C)C5)c4C#N)n3n2)ccc1F (stereo partly drawn) [compound 201]	< 10
C[C@@H](Cn1cnnn1)Oc1cc(-c2ccc3ncc(-c4cccc(OCC(N)=O)c4C#N)n3n2)ccc1F [compound 202]	< 10
C[C@@H](Cn1cnnn1)Oc1cc(-c2ccc3ncc(-c4cccc(OCC5CCOCC5)c4C#N)n3n2)ccc1F [compound 203]	< 10
CC(=O)NCCCOc1cccc(-c2cnc3ccc(-c4ccc(F)c(O[C@@H](C)Cn5cnnn5)c4)nn23)c1C#N [compound 204]	< 10
CC(=O)N(C)CCOc1cccc(-c2cnc3ccc(-c4ccc(F)c(O[C@@H](C)Cn5cnnn5)c4)nn23)c1C#N [compound 205]	< 10
C[C@@H](Cn1cnnn1)Oc1cc(-c2ccc3ncc(-c4cccc(OCC(F)F)c4C#N)n3n2)ccc1F [compound 206]	< 10
C[C@@H](Cn1cnnn1)Oc1cc(-c2ccc3ncc(-c4cccc(OCCN5CCCC5=O)c4C#N)n3n2)ccc1F [compound 207]	< 10
C[C@@H](Cn1cnnn1)Oc1cc(-c2ccc3ncc(-c4cccc(OCCC5CCNCC5)c4C#N)n3n2)ccc1F [compound 208]	< 10
C[C@@H](Cn1cnnn1)Oc1cc(-c2ccc3ncc(-c4cccc(OCCOCCN(C)C)c4C#N)n3n2)ccc1F [compound 209]	< 10
C[C@@H](Cn1cnnn1)Oc1cc(-c2ccc3ncc(-c4cccc(OCC5CCC5)c4C#N)n3n2)ccc1F [compound 210]	< 10
C[C@@H](Cn1cnnn1)Oc1cc(-c2ccc3ncc(-c4cccc(OCCN5C(=O)CCC5=O)c4C#N)n3n2)ccc1F [compound 211]	< 10
COCCOCCOCCOc1cccc(-c2cnc3ccc(-c4ccc(F)c(O[C@@H](C)Cn5cnnn5)c4)nn23)c1C#N [compound 212]	< 10
CC(C)Oc1cccc(-c2cnc3ccc(-c4ccc(F)c(O[C@@H](C)Cn5cnnn5)c4)nn23)c1C#N [compound 213]	< 10
C[C@@H](Cn1cnnn1)Oc1cc(-c2ccc3ncc(-c4cccc(OCC(F)(F)F)c4C#N)n3n2)ccc1F [compound 214]	< 10
C[C@@H](Cn1cnnn1)Oc1cc(-c2ccc3ncc(-c4cccc(OCCN5CCC5)c4C#N)n3n2)ccc1F [compound 215]	< 10

SMILES	IC50 [nM]
C[C@@H](Cn1cnnn1)Oc1cc(-c2ccc3ncc(-c4cccc(OCC(=O)O)c4C#N)n3n2)ccc1F [compound 216]	< 10
C[C@@H](Cn1cnnn1)Oc1cc(-c2ccc3ncc(-c4cccc(OCCCC(=O)O)c4C#N)n3n2)ccc1F [compound 217]	< 10
C[C@@H](Cn1cnnn1)Oc1cc(-c2ccc3ncc(-c4cccc[n+]4[O-])n3n2)ccc1F [compound 218]	10 to 100
COc1ncc(C#N)cc1-c1cnc2ccc(-c3ccc(F)c(O[C@@H](C)Cn4cnnn4)c3)nn12 [compound 219]	< 10
C[C@@H](Cn1cnnn1)Oc1cc(-c2ccc3ncc(-c4cc(C#N)c[nH]c4=O)n3n2)ccc1F [compound 220]	< 10
C[C@@H](Cn1cnnn1)Oc1cc(-c2ccc3ncc(-c4cc(C#N)cn(C)c4=O)n3n2)ccc1F [compound 221]	< 10
C[C@@H](Cn1cnnn1)Oc1cc(-c2ccc3ncc(-c4cn(CCCO)nc4C#N)n3n2)ccc1F [compound 222]	10 to 100
COCCCn1ncc(-c2cnc3ccc(-c4ccc(F)c(O[C@@H](C)Cn5cnnn5)c4)nn23)c1C#N [compound 223, 4-[6-(4-fluoro-3-{[(2S)-1-(1H-tetrazol-1-yl)propan-2-yl]oxy}phenyl)imidazo[1,2-b]pyridazin-3-yl]-1-(3-methoxypropyl)-1H-pyrazole-5-carbonitrile]	< 10
COCCCOC(=O)c1c(-c2cnc3ccc(-c4ccc(F)c(O[C@@H](C)Cn5cnnn5)c4)nn23)cnn1CCCOC [compound 224]	> 100
C[C@@H](Cn1cnnn1)Oc1cc(-c2ccc3ncc(-c4cnn(CCCO)c4C#N)n3n2)ccc1F [compound 225]	< 10
C[C@@H](Cn1cnnn1)Oc1cc(-c2ccc3ncc(-c4cccc(OCC(C)(C)C#N)c4C#N)n3n2)ccc1F [compound 226, 2-(2-cyano-2,2-dimethylethoxy)-6-[6-(4-fluoro-3-{[(2S)-1-(1H-tetrazol-1-yl)propan-2-yl]oxy}phenyl)imidazo[1,2-b]pyridazin-3-yl]benzonitrile]	< 10
C[C@@H](Cn1cnnn1)Oc1cc(-c2ccc3ncc(-c4ccccn4)n3n2)ccc1F [compound 227, 2-[6-(4-fluoro-3-{[(2S)-1-(1H-tetrazol-1-yl)propan-2-yl]oxy}phenyl)imidazo[1,2-b]pyridazin-3-yl]pyridine]	< 10
C[C@@H](Cn1cnnn1)Oc1cc(-c2ccc3ncn(-c4cccc(C(=O)N(C)C)c4C#N)c3n2)ccc1F [compound 228]	> 100
COC1CN(C(=O)c2cccc(-n3cnc4ccc(-c5ccc(F)c(O[C@@H](C)Cn6cnnn6)c5)nc43)c2C#N)C1 [compound 229, 2-[5-(4-fluoro-3-{[(2S)-1-(1H-tetrazol-1-yl)propan-2-yl]oxy}phenyl)-3H-imidazo[4,5-b]pyridin-3-yl]-6-(3-methoxyazetidine-1-carbonyl)benzonitrile]	10 to 100
COCCCn1ncc(-c2cnc3ccc(-c4ccc(F)c(O[C@@H](C)Cn5cnnn5)c4)nn23)c1C(=O)O [compound 230]	> 100

Same assay, conditions: in vitro CaMKII inhibitory activity (binding assay), human CaMKIIδ; read-out: Act

SMILES	IC50 [nM]
C[C@@H](Cn1cnnn1)Oc1cc(-c2ccc3ncc(-c4nccc(NC(=O)OC(C)(C)C)c4C#N)n3n2)ccc1F [compound 231]	< 10
C[C@@H](Cn1cnnn1)Oc1cc(-c2ccc3ncc(-c4nccc(N(C(=O)OC(C)(C)C)C(=O)OC(C)(C)C)c4C#N)n3n2)ccc1F [compound 232]	< 10
C[C@@H](Cn1cnnn1)Oc1cc(-c2ccc3ncc(-c4ccnc(N)c4C#N)n3n2)ccc1F [compound 233]	< 10
C[C@@H](Cn1cnnn1)Oc1cc(-c2ccc3ncc(-c4nccc(N)c4C#N)n3n2)ccc1F [compound 234]	< 10
CNC(=O)c1c(-c2cnc3ccc(-c4ccc(F)c(O[C@@H](C)Cn5cnnn5)c4)nn23)cnn1CCCOC [compound 235]	> 100
COCCCn1ncc(-c2cnc3ccc(-c4ccc(F)c(O[C@@H](C)Cn5cnnn5)c4)nn23)c1C(=O)N(C)C [compound 236]	> 100
COCCCn1ncc(-c2cnc3ccc(-c4ccc(F)c(O[C@@H](C)Cn5cnnn5)c4)nn23)c1C(=O)NCCOC [compound 237]	> 100
COC(=O)c1sccc1-c1cnc2ccc(-c3ccc(F)c(O[C@@H](C)Cn4cnnn4)c3)nn12 [compound 238]	10 to 100
COc1cc(-c2cnc3ccc(-c4ccc(F)c(O[C@@H](C)Cn5cnnn5)c4)nn23)c(C#N)cn1 [compound 240]	< 10
C[C@@H](Cn1cnnn1)Oc1cc(-c2ccc3ncc(-c4cc(=O)[nH]cc4C#N)n3n2)ccc1F [compound 241]	< 10
C[C@@H](Cn1cnnn1)Oc1cc(-c2ccc3ncc(-c4cc(=O)n(C)cc4C#N)n3n2)ccc1F [compound 242]	< 10
C[C@@H](Cn1cnnn1)Oc1cc(-c2ccc3ncc(-c4ccsc4C(=O)O)n3n2)ccc1F [compound 243]	> 100
CNC(=O)c1sccc1-c1cnc2ccc(-c3ccc(F)c(O[C@@H](C)Cn4cnnn4)c3)nn12 [compound 245]	10 to 100
C[C@@H](Cn1cnnn1)Oc1cc(-c2ccc3ncc(-c4cc(F)ccc4C#N)n3n2)ccc1F [compound 246]	< 10
C[C@@H](Cn1cnnn1)Oc1cc(-c2ccc3ncc(-c4cccnc4C#N)n3n2)ccc1F [compound 248]	< 10
COc1ccc(-c2cnc3ccc(-c4ccc(F)c(O[C@@H](C)Cn5cnnn5)c4)nn23)c(C#N)n1 [compound 249]	< 10
C[C@@H](Cn1cnnn1)Oc1cc(-c2ccc3ncc(-c4ccn5ccnc5c4C#N)n3n2)ccc1F [compound 250]	< 10
C[C@@H](Cn1cnnn1)Oc1cccc(-c2ccc3ncc(-c4ccc[nH]c4=O)n3n2)c1 [compound 252, 3-[6-(3-{[(2S)-1-(1H-tetrazol-1-yl)propan-2-yl]oxy}phenyl)imidazo[1,2-b]pyridazin-3-yl]-1,2-dihydropyridin-2-one]	< 10
COCCn1cccc(-c2cnc3ccc(-c4cccc(O[C@@H](C)Cn5cnnn5)c4)nn23)c1=O [compound 254]	< 10
C[C@@H](Cn1cnnn1)Oc1cc(-c2ccc3ncc(-c4ccc(=O)[nH]c4C#N)n3n2)ccc1F [compound 255]	< 10
C[C@@H](Cn1cnnn1)Oc1cc(-c2ccc3ncc(-c4ccc(=O)n(C)c4C#N)n3n2)ccc1F [compound 256]	> 100
C[C@@H](Cn1cnnn1)Oc1cccc(-c2ccc3ncc(-c4cccnc4C#N)n3n2)c1 [compound 257, 3-[6-(3-{[(2S)-1-(1H-tetrazol-1-yl)propan-2-yl]oxy}phenyl)imidazo[1,2-b]pyridazin-3-yl]pyridine-2-carbonitrile]	< 10
C[C@@H](Cn1cnnn1)Oc1cc(-c2ccc3ncc(-c4cccc(N=S5(=O)CCCC5)c4C#N)n3n2)ccc1F [compound 258]	< 10
C[C@@H](Cn1cnnn1)Oc1cccc(-c2ccc3ncc(-c4ccn(C)c(=O)c4C#N)n3n2)c1 [compound 259, 1-methyl-2-oxo-4-[6-(3-{[(2S)-1-(1H-tetrazol-1-yl)propan-2-yl]oxy}phenyl)imidazo[1,2-b]pyridazin-3-yl]-1,2-dihydropyridine-3-carbonitrile]	< 10
C[C@@H](Cn1cnnn1)Oc1cccc(-c2ccc3ncc(-c4ccnc(Cl)c4C#N)n3n2)c1 [compound 260]	< 10
CCOc1nccc(-c2cnc3ccc(-c4cccc(O[C@@H](C)Cn5cnnn5)c4)nn23)c1C#N [compound 261]	< 10
